Target: human plasma kallikrein (Homo sapiens (Human), UniProt P03952)
Assay: In vitro enzyme inhibition of human plasma kallikrein (PFR-AMC cleavage)
Assay type: biochemical
Settings: Pro-Phe-Arg-AMC substrate, 37° C., read-out: hPK IC50
Description: The ability of the compounds disclosed herein to inhibit human plasma kallikrein activity was quantified according to the procedures below.
A 10 mM solution of the test compound was made in DMSO. […] A control tube containing only DMSO is included. 16 μL of each compound test solution was combined with 384 μL of assay buffer (50 mM Tris-HCl pH 7.5, 150 mM NaCl, 0.01% Triton X-100) to yield a “4× test compound buffer stock”.
These solutions are hereby referred to as 4×hPK and 2×PFR-AMC, respectively.
50 μL was removed from this mixture and placed into duplicate wells on a Microfluor 1Black U-bottom microtiter plate (Thermo Scientific). This plate was incubated for 5 minutes at 37° C. To each well, 50 μL of pre-warmed 2×PFR-AMC was added to start the enzymatic reaction. Cleavage of PFR-AMC was monitored in a Biotek Synergy H4 reader set at 37° C. Readings are taken every 43 seconds for 1 hour. […] The IC50 is calculated using the Gen5 (Biotek Instruments).
The ability of the compounds in Table 3 to inhibit human plasma kallikrein activity was determined.

Sequence of human plasma kallikrein (P03952 391-638 limits assumed): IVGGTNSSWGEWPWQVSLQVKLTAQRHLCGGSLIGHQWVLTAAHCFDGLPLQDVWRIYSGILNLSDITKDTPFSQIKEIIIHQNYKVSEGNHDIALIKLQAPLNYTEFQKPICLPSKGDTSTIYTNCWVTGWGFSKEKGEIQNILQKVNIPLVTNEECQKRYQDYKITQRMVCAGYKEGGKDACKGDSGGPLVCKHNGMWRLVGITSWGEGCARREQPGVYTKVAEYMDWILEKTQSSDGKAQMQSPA
Sequence of human plasma kallikrein (P03952 20-390 partner limits assumed): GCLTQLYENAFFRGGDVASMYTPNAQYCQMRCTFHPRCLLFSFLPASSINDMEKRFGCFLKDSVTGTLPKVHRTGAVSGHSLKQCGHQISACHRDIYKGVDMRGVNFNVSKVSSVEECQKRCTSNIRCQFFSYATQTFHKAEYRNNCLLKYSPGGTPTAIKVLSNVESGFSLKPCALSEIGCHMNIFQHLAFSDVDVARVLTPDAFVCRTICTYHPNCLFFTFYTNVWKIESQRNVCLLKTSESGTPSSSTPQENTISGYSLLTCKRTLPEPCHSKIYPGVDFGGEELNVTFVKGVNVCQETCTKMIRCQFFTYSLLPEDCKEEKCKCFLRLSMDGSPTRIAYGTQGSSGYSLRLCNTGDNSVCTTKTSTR

For “N-((3-chloro-6-fluoro-1H-indol-5-yl)methyl)-2-((2-isocyanoquinolin-6-yl)methyl)isonicotinamide [Example 130]”, the IC50 was less than 100 nM.
